Assay results published in US9232800B2.
Marks after values point to notes of the source that are not given here.

Tested on: Meloidogyne incognita nematodes
Experiment: Miniaturized greenhouse nematicidal efficacy assay (cucumber seedlings in sand, root gall rating)
[1] = 0.5 ppm, test b, average of triplicate gall ratings (scale 0-3, % root mass galled)
[2] = 1 ppm, test b, average of triplicate gall ratings (scale 0-3, % root mass galled)
[3] = 8 ppm, test b, average of triplicate gall ratings (scale 0-3, % root mass galled)
[4] = 0.5 ppm, test a, average of triplicate gall ratings (scale 0-3, % root mass galled)
[5] = 1 ppm, test a, average of triplicate gall ratings (scale 0-3, % root mass galled)
[6] = 8 ppm, test a, average of triplicate gall ratings (0=0-5%, 1=6-20%, 2=21-50%, 3=51-100% root mass galled), harvest 10 to 12 days after inoculation

Compound	8/1/0.5 ppm gall ratings* [1]	8/1/0.5 ppm gall ratings* [2]	8/1/0.5 ppm gall ratings* [3]	8/1/0.5 ppm gall ratings* [4]	8/1/0.5 ppm gall ratings* [5]	8/1/0.5 ppm gall ratings* [6]
Clc1cccc(C2NC(c3cccs3)=NO2)c1 (stereo not shown) [IIa-ii, 5-(3-chlorophenyl)-3-(thiophen-2-yl)-4,5-dihydro-1,2,4-oxadiazole]	3.00	2.33	0.33			
Cc1cc(Cl)ccc1C1NC(c2ccco2)=NO1 (stereo not shown) [IIa-iii, 5-(4-chloro-2-methylphenyl)-3-(furan-2-yl)-4,5-dihydro-1,2,4-oxadiazole]	2.33	1.67	0.00			
c1ccc(C2=NOC(c3cccs3)N2)cc1 (stereo not shown) [Ia-i, 3-phenyl-5-(thiophen-2-yl)-4,5-dihydro-1,2,4-oxadiazole]	2.67	1.67	0.00	2.33	1.33	0.00
c1ccc(C2=NOC(c3ccco3)N2)cc1 (stereo not shown) [Ia-ii, 5-(furan-2-yl)-3-phenyl-4,5-dihydro-1,2,4-oxadiazole]	2.33	0.67	0.00	2.67	2.00	0.00
Clc1ccc(C2=NOC(c3ccco3)N2)cc1 (stereo not shown) [Ia-iii, 3-(4-chlorophenyl)-5-(furan-2-yl)-4,5-dihydro-1,2,4-oxadiazole]	3.00	1.67	0.00			
Cc1cc(Cl)ccc1C1=NOC(c2ccco2)N1 (stereo not shown) [Ia-iv, 3-(4-chloro-2-methylphenyl)-5-(furan-2-yl)-4,5-dihydro-1,2,4-oxadiazole]	2.67	1.67	0.00			
Clc1ccc(C2=NOC(c3ccco3)N2)c(Cl)c1 (stereo not shown) [Ia-ix, 3-(2,4-dichlorophenyl)-5-(furan-2-yl)-4,5-dihydro-1,2,4-oxadiazole]	3.00	2.33	0.00			
Fc1ccc(C2=NOC(c3cccs3)N2)cc1 (stereo not shown) [Ia-v, 3-(4-fluorophenyl)-5-(thiophen-2-yl)-4,5-dihydro-1,2,4-oxadiazole]	1.67	0.00	0.00			
Clc1ccc(C2=NOC(c3ccoc3)N2)cc1 (stereo not shown) [Ib-iv, 3-(4-chlorophenyl)-5-(furan-3-yl)-4,5-dihydro-1,2,4-oxadiazole]	2.67	1.33	0.00			
Abamectin [reference compound]					1.67^a	
